The text below walks through data of ChEMBL document CHEMBL5346969 (J Med Chem, 2023).

Molecules are shown by their SMILES. The source made the active and inactive calls. No cut-off for these calls is given here.

Data set [1] in a line: Tmax in rat at 10 mg/kg, ip and measured upto 24 hrs by LC-MS/MS analysis. The format is ADME, organism-based. Conditions: in vivo.
Data set [2] in a line: AUCt in rat at 10 mg/kg, ip and measured upto 24 hrs by LC-MS/MS analysis. More on the design: dose 10 mg/kg, time < 24 hrs, route ip. The format is ADME, organism-based. Conditions: in vivo.
Data set [3] can be described thus: Acute toxicity in ICR mouse assessed as lethality at 200 to 488 mg/kg,ip and measured after 14 days. The format is organism-based. Conditions: in vivo, dose 200-488 mg/kg, time 14 day.
The target in data set [4] is T1, Phospholipid hydroperoxide glutathione peroxidase GPX4 (Homo sapiens) (UniProt P36969).
T1 sequence (whole entry): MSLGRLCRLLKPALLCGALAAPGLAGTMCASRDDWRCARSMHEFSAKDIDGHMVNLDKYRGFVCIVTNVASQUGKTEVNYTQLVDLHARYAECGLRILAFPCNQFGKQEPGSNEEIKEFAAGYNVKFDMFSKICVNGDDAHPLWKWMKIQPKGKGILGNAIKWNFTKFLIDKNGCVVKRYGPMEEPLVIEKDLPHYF
Nature of the data set: Binding affinity to GPX4 in human MDA-MB-231 cells assessed as decrease in apprent aggregation temperature at 1 uM incubated for 2 hrs by CESTA analysis (Rvb=58.3 +/- 0.7 degreeC). The format is cell-based.

For data set [5], the target named is T1, Phospholipid hydroperoxide glutathione peroxidase GPX4 (Homo sapiens). In words: Binding affinity to GPX4 (unknown origin) at Cys66 residue assessed as change in mass of single charged y6+ ion at 100 uM incubated for 1.5 hrs by SDS-PAGE based LC-MS/MS analysis.
A short description of data set [6]: MRT(t) in rat at 10 mg/kg, ip and measured upto 24 hrs by LC-MS/MS analysis. The format is ADME, organism-based. Particulars: in vivo.
The target in data set [7] is T1, Phospholipid hydroperoxide glutathione peroxidase GPX4 (Homo sapiens). In words: Binding affinity to GPX4 (35 to 48 residues) (unknown origin) at Sec46 residue assessed as increase in mass of single charged y3+ ion at 100 uM incubated for 1.5 hrs by SDS-PAGE based LC-MS/MS analysis.
The test system of data set [8] is MDA-MB-231. In words: Induction of ferroptosis in siRNA mediated GPX4 knockdown human MDA-MB-231 cells with assessed as cell viability at 10 nM incubated for 10 hrs by MTT assay. The format is functional, cell-based. (Tetrazolium assays rely on reduction of a dye to a coloured formazan, in cell work by metabolically active cells.)
The target in data set [9] is T1, Phospholipid hydroperoxide glutathione peroxidase GPX4 (Homo sapiens). In words: Binding affinity to GPX4 (unknown origin) at Cys66 residue assessed as change in mass of single charged b5+ ion at 100 uM incubated for 1.5 hrs by SDS-PAGE based LC-MS/MS analysis.
In data set [10] the test system is MDA-MB-231. In words: Induction of ferroptosis in siRNA mediated GPX4 knockdown human MDA-MB-231 cells with assessed as change in GPX4 protein expression level at 20 nM incubated for 8 hrs by Western blot analysis. The format is functional, cell-based. For orientation: Immunoblotting shows a protein as a band on a membrane.
The target in data set [11] is T1, Phospholipid hydroperoxide glutathione peroxidase GPX4 (Homo sapiens). In words: Binding affinity to GPX4 in human MDA-MB-231 cells assessed as reduction in thermal stability at 1 uM incubated for 2 hrs by CESTA analysis. In kind it is cell-based.
Data set [12] shares this target. In words: Binding affinity to GPX4 (unknown origin) at Cys66 residue assessed as change in mass of single charged y3+ ion at 100 uM incubated for 1.5 hrs by SDS-PAGE based LC-MS/MS analysis.

In general, Tmax refers to the time from dosing to the highest level. As usually defined, the LD50 is the dose expected to kill half of the subjects tested. Usually MRT last stands for a mean duration of stay, worked out from the concentration-time curve. As to `COc1cc(N(C(=O)CCl)c2ccc3c(c2)OCCO3)cc(OC)c1F`, the Tmax in data set [1] came out at 0.85 h. Further, the AUCt in data set [2] is 12100 ng·h/mL. In data set [3], the LD50 at 336 h came out at 338 mg/kg. In [4], the T worked out at 51.8 °C. For the same compound, the outcome in data set [5], in [8], in data set [9], in data set [10] and in data set [12] was inactive. In data set [6], this compound showed an MRT last at 24 h of 1.71 h. For the same compound, the result in data set [7] and in data set [11] was Active.
